We go through nine compounds from paper PMC7435711, “Synthesis and Pharmacological Effects of Diosgenin–Betulinic Acid Conjugates” (Molecules, 2020).

For orientation: IC50 means the point on the concentration scale where inhibition reaches its midpoint.

Read-outs that look alike come from different tables or passages of the source. A value given as a limit tells only on which side of the number the result lay.

The subject of data set [1] is human T-lymphoblastic leukemia (CEM) cells. Nature of the data set: Cytotoxicity screening test, CEM. The following applies: CCRF-CEM, 72 h, read-out: Cytotoxicity IC50, CEM.
Protocol: (§1) Doxorubicin was used as a positive control.
(§2) The screening cell lines, T-lymphoblastic leukemia (CEM), cervical carcinoma (HeLa), breast carcinoma (MCF7), and human foreskin fibroblasts (BJ) were obtained from the American Type Culture Collection (Manassas, VA, USA). Cells were cultured in DMEM (Dulbecco’s Modified Eagle Medium, Sigma Aldrich, Darmstadt, Germany). Media used were supplemented with 10% fetal bovine serum, 2 mM L-glutamine, and 1% penicillin-streptomycin (all from Sigma Aldrich, Darmstadt, Germany). The cell lines were maintained under standard cell culture conditions at 37 °C and 5% CO2 in humid environment. Cells were subcultured twice or three times a week using the standard trypsinization procedure.
Data set [2] has as its system human breast adenocarcinoma (MCF7) cells. Description: Cytotoxicity screening test, MCF7. The following applies: MCF7, 72 h, read-out: Cytotoxicity IC50, MCF7.
Protocol: as §1, §2
In data set [3] the test system is human cervical cancer (HeLa) cells. Description: Cytotoxicity screening test, HeLa. To be noted: 72 h, read-out: Cytotoxicity IC50, HeLa.
Protocol: as §1, §2
Data set [4] relates to human colon carcinoma (HCT 116) cells. Description: Cytotoxicity screening test, HCT 116. To be noted: HCT-116, 72 h, read-out: Cytotoxicity IC50, HCT 116.
A short description of data set [5]: Cytotoxicity screening test, BJ reference cells. To be noted: human, BJ normal foreskin fibroblasts.
Protocol: as §1, §2
Data set [6] relates to CEM, MCF7, HeLa, HCT 116 cancer cell lines and BJ fibroblasts. Description: Cytotoxicity screening tests, summary statements over the cell line panel. To be noted: for IC50: Homo sapiens, 72 h, read-out: IC50 against all tested cell lines.
Protocol: as §1, §2
Data set [7] has the same test system.
Protocol: as §1, §2
Another data set is described as follows: in vitro. To be noted: human.

Protocol for in vitro: as §1, §2

On to `C[C@@H]1CC[C@@]2(OC1)O[C@H]1C[C@H]3[C@@H]4CC=C5C[C@@H](O)CC[C@]5(C)[C@H]4CC[C@]3(C)[C@H]1[C@@H]2C` [Compound 1, (3β,25R)-spirost-5-en-3-ol, reference compound], for which the IC50 in data set [1], in data set [2], in data set [3], in data set [4] and in data set [6] was over 50 µM in each case. In data set [5], this compound yielded an IC50 at 72 h of over 50 µM.
Turning to `C=C(C)[C@@H]1CC[C@]2(C(=O)O)CC[C@]3(C)[C@H](CC[C@@H]4[C@@]5(C)CC[C@H](O)C(C)(C)[C@@H]5CC[C@]43C)[C@@H]12` [Compound 2, 3β-hydroxylup-20(29)-en-28-oic acid, reference compound], the IC50 in data set [1], in data set [2], in data set [3], in data set [4] and in data set [6] was over 50 µM throughout. In data set [5], this compound returned an IC50 at 72 h of over 50 µM. For the same compound, the “Cytotoxicity (in words)” value in data set [6] (summary over the tested cell lines) is “no cytotoxicity”.
Consider `C=C(C)[C@@H]1CC[C@]2(C(=O)OCc3ccccc3)CC[C@]3(C)[C@H](CC[C@@H]4[C@@]5(C)CC[C@H](O)C(C)(C)[C@@H]5CC[C@]43C)[C@@H]12` [Compound 3, Benzyl (3β)-3-hydroxylup-20(29)-en-28-oate], for which the “Cytotoxicity (in words)” value in data set [7] is listed as “no cytotoxicity”. The compound further registered an IC50 at 72 h in “in vitro” of over 50 µM. In addition, the IC50 in data set [1], in data set [2], in data set [3], in data set [4] and in data set [6] was over 50 µM each time.
Turning to `C#CCO[C@H]1CC[C@]2(C)[C@H]3CC[C@@H]4[C@H]5[C@H](C(=C)C)CC[C@]5(C(=O)OCc5ccccc5)CC[C@@]4(C)[C@]3(C)CC[C@H]2C1(C)C` [Compound 4, Benzyl (3β)-3-(prop-2-yn-1-yloxy)lup-20(29)-en-28-oate], in data set [7], the “Cytotoxicity (in words)” value is on record as “no cytotoxicity”. Moreover, the IC50 at 72 h in the data set “in vitro” was over 50 µM. Besides, the half-inhibitory concentration (IC50) in data set [1], in data set [2], in data set [3], in data set [4] and in data set [6] was over 50 µM each time.
Consider `C=C(C)[C@@H]1CC[C@]2(C(=O)OCc3ccccc3)CC[C@]3(C)[C@H](CC[C@@H]4[C@@]5(C)CC[C@H](OCc6cn(CCCCC(=O)O)nn6)C(C)(C)[C@@H]5CC[C@]43C)[C@@H]12` [Compound 5, 5-[4-({[(3β)-28-(Benzyloxy)-28-oxolup-20(29)-en-3-yl]oxy}-methyl)-1H-1,2,3-triazol-1-yl]pentanoic acid], for which, in “in vitro”, the IC50 at 72 h is over 50 µM. The IC50 in data set [1] turned out to be 15.8 ± 0.6 µM; in data set [2], 49.5 ± 0.7 µM; in data set [3], 20.3 ± 4.4 µM; in data set [4] it was 19.4 ± 2.1 µM.
In the case of `C=C(C)[C@@H]1CC[C@]2(C(=O)O)CC[C@]3(C)[C@H](CC[C@@H]4[C@@]5(C)CC[C@H](OCc6cn(CCCCC(=O)O)nn6)C(C)(C)[C@@H]5CC[C@]43C)[C@@H]12` [Compound 6, (3β)-3-{[1-(4-Carboxybutyl)-1H-1,2,3-triazol-4-yl]methoxy}lup-20(29)-en-28-oic Acid], in data set [7], the “Cytotoxicity (in words)” value was “inactive”. Further, in the data set “in vitro”, the IC50 at 72 h was over 50 µM. Besides, the 50% inhibitory concentration (IC50) in data set [1], in data set [2], in data set [3] and in data set [4] was over 50 µM each time.
As for `C=C(C)[C@@H]1CC[C@]2(C(=O)OCc3ccccc3)CC[C@]3(C)[C@H](CC[C@@H]4[C@@]5(C)CC[C@H](OCc6cn(CCCCC(=O)O[C@H]7CC[C@@]8(C)C(=CC[C@H]9[C@@H]%10C[C@@H]%11O[C@]%12(CC[C@@H](C)CO%12)[C@@H](C)[C@@H]%11[C@@]%10(C)CC[C@@H]98)C7)nn6)C(C)(C)[C@@H]5CC[C@]43C)[C@@H]12` [Compound 7, Benzyl (3β)-3-[(1-{5-oxo-5-[(3β,25R)-spirost-5-en-3-yloxy]pentyl}-1H-1,2,3-triazol-4-yl)methoxy]lup-20(29)-en-28-oate], the “Cytotoxicity (in words)” value in data set [7] was “medium to weak multifarious cytotoxicity”. In “in vitro”, this compound had an IC50 at 72 h of 46.2 ± 2.8 µM. Further, the IC50 in data set [1] was 6.5 ± 1.1 µM; in data set [2] it was over 50 µM; in data set [3], over 50 µM; in data set [4] it was over 50 µM.
On to `C=C(C)[C@@H]1CC[C@]2(C(=O)O)CC[C@]3(C)[C@H](CC[C@@H]4[C@@]5(C)CC[C@H](OCc6cn(CCCCC(=O)O[C@H]7CC[C@@]8(C)C(=CC[C@H]9[C@@H]%10C[C@@H]%11O[C@]%12(CC[C@@H](C)CO%12)[C@@H](C)[C@@H]%11[C@@]%10(C)CC[C@@H]98)C7)nn6)C(C)(C)[C@@H]5CC[C@]43C)[C@@H]12` [Compound 8, (3β)-3-[(1-{5-Oxo-5-[(3β,25R)-spirost-5-en-3-yloxy]pentyl}-1H-1,2,3-triazol-4-yl]methoxy}lup-20(29)-en-28-oic Acid], for which, in “in vitro”, the IC50 at 72 h was over 50 µM. Further, the IC50 in data set [1], in data set [2], in data set [3] and in data set [4] was over 50 µM throughout.
Consider `COc1cccc2c1C(=O)c1c(O)c3c(c(O)c1C2=O)C[C@@](O)(C(=O)CO)C[C@@H]3O[C@H]1C[C@H](N)[C@H](O)[C@H](C)O1` [Doxorubicin, reference compound], for which the IC50 in data set [4] stood at 0.524 ± 0.177 µM. The compound further registered an IC50 at 72 h in data set [5] of 0.278 ± 0.036 µM.
